Test results published in patent US20050220718A1, “Stable pharmaceutical solution formulations for pressurized metered dose inhalers” (Chiesi Farmaceutici S.p.A., priority 2004, published 2005).

What was measured:
[1] = Stability of TA 2005 + budesonide HFA 134a compositions with phosphoric acid, 40° C. and 75% relative humidity; type: physicochemical; details: TA 2005 1 μg + budesonide 200 μg/actuation, phosphoric acid 85% 0.0032 or 0.0064% w/w, 0.15% w/w water
Experimental: The two compositions containing TA 2005 and budesonide as active ingredients and two different concentrations of phosphoric acid as shown in Table 4 were prepared.
Volume of the valve: 63 μl; strength: TA 2005 1 μg+budesonide 200 μg/actuation; no. of actuations: 120 (34 overfilling doses).
The two active ingredients in the compositions were stable after three months storage at 40° C. and 75% relative humidity, giving residual percent amounts of at least 95% TA 2005 and about 100% of Budesonide.

[2] = Stability of acidified TA 2005-HFA 134a solutions in cans coated with a fluorocarbon polymer, stored upright at 50° C.; type: physicochemical
Experimental: Comparative Example 1 (corresponding to Example 7 of WO 01/89480). Stability of acidified TA 2005-HFA 134a solutions in cans coated with a fluorocarbon polymer.
(§1) A solution of TA 2005 (3.5 μg/50 μl) was prepared by dissolving 0.84 mg of the active ingredient in HFA 134a containing 12% w/w ethanol and 1.0% w/w of isopropyl myristate. pMDI coated cans containing 1.0, 1.4, and 1.8 μl of 0.08 M hydrochloric acid (corresponding respectively to an apparent pH of about 4.8, 3.2, and 2.9) were set down on storage, upright at 50° C., and samples taken for analysis of TA 2005 contents at appropriate intervals.
Each value is expressed as percent nominal drug concentration.

[3] = 4 μg per actuation, HCl stabilized, stored upright at 5° C., after nine months (WO 03/074025); cited from earlier work
[4] = Stability study of TA 2005 HFA 134a formulation with 15.2M phosphoric acid, upright and inverted cans at 40° C. and 75% relative humidity; type: physicochemical; details: TA 2005 1 μg/63 μl, 15% w/w ethanol, phosphoric acid 15.2M 0.001 to 0.0027% w/w
Experimental: The formulation of Table 3 (120 actuations canister, overage of 30 actuations) was filled in aluminum canisters having the internal surface coated with teflon and fitted with commercial valves having a 63 μl metering chamber. A stability study was carried out by storing the formulation in upright and inverted cans at 40° C. and 75% relative humidity.

[5] = Apparent pH (acidity function pH') of acidified TA 2005 solutions; type: physicochemical; details: TA 2005 3.5 μg/50 μl in HFA 134a
Source text: The attribution ‘apparent’ is used as pH is indeed characteristic of aqueous liquids where water is the dominant component (Mole Fraction >0.95). […] Although the Nernst equation with respect to EMF applies and the pH-meter glass electrode system will generate a variable milli-volt output according to proton concentration and vehicle polarity, the “pH” meter reading is not a true pH value. The meter reading represents an apparent pH or acidity function (pH′).
Rather concentrated, i.e., more than about 10 M, preferably more than about 12 M, and most preferably about 15 M phosphoric acid is used to adjust the apparent pH. In the examples that follow 85%, i.e., 15.2M phosphoric acid has been used. The amount of acid to be added to reach the desired apparent pH will be pre-determined in the model vehicle reported before
1.0 M hydrochloric acid was added incrementally to 50 ml of HFA 43-10MEE (Vertrel XF) containing 20% w/w ethanol and the pH′ was measured after each aliquot of acid.
as §1

[6] = Stability study of TA 2005 HFA 134a formulations with 0.1M hydrochloric acid, upright cans at 40° C. and 75% relative humidity; type: physicochemical; details: TA 2005 1 μg/63 μl, 15% w/w ethanol
Experimental: Two aluminum canisters having the internal surface coated with teflon and fitted with commercial valves having a 63 μl metering chamber were filled with the following formulations shown in Table 2. A stability study was carried out by storing the formulations in upright cans at 40° C. and 75% relative humidity.

[7] = HFA propellant and ethanol, conventional aluminum or plastic coated glass cans; 40° C., 75% relative humidity, one month (WO 99/65460); cited from earlier work

| Compound | residual percent amount after three months storage [1] | TA 2005 content, percent nominal drug concentration, 50° C.; 22 days upright ([2]; 1.0 μl 0.08M HCl per can) [%] | TA 2005 content, percent nominal drug concentration, 50° C.; 83 days upright ([2]; 1.0 μl 0.08M HCl per can) [%] | TA 2005 content, percent nominal drug concentration, Initial ([2]; 1.0 μl 0.08M HCl per can, TA 2005 3.5 μg/50 μl, 12% w/w ethanol, 1.0% w/w isopropyl myristate) [%] | TA 2005 content, percent nominal drug concentration, 50° C.; 22 days upright ([2]; 1.4 μl 0.08M HCl per can) [%] | TA 2005 content, percent nominal drug concentration, 50° C.; 83 days upright ([2]; 1.4 μl 0.08M HCl per can) [%] | TA 2005 content, percent nominal drug concentration, Initial ([2]; 1.4 μl 0.08M HCl per can) [%] | TA 2005 content, percent nominal drug concentration, 50° C.; 22 days upright ([2]; 1.8 μl 0.08M HCl per can) [%] | TA 2005 content, percent nominal drug concentration, 50° C.; 83 days upright ([2]; 1.8 μl 0.08M HCl per can) [%] | TA 2005 content, percent nominal drug concentration, Initial ([2]; 1.8 μl 0.08M HCl per can) [%] | TA 2005 assay [3] | residual percent amount of TA 2005 after three months of storage [4] | apparent pH ([5]; 1.0 μl of 0.08 M hydrochloric acid per can) | apparent pH ([5]; 1.4 μl of 0.08 M hydrochloric acid per can) | apparent pH ([5]; 1.8 μl of 0.08 M hydrochloric acid per can) | percent amount of TA 2005 after three months of storage ([6]; 0.1M HCl 0.018% w/w) [%] | percent amount of TA 2005 after three months of storage ([6]; 0.1M HCl 0.027% w/w) [%] | loss of drug [7] |
| --- | --- | --- | --- | --- | --- | --- | --- | --- | --- | --- | --- | --- | --- | --- | --- | --- | --- | --- |
| COc1ccc(C[C@@H](C)NC[C@H](O)c2ccc(O)c3[nH]c(=O)ccc23)cc1.Cl [TA 2005, 8-hydroxy-5-[(1R)-1-hydroxy-2-[[(1R)-2-(4-methoxyphenyl)-1-methylethyl]amino]ethyl]-2(1H)-quinolinone hydrochloride] | at least 95% | 98.3 | 99.4 | 100.0 | 98.2 | 98.8 | 100.0 | 90.2 | 88.1 | 100.0 | higher than 95% | up to 98% | about 4.8 | ~3.2 | ~2.9 | 73 | 77 | – |
| COc1ccc(C[C@@H](C)NC[C@H](O)c2ccc(O)c(NC=O)c2)cc1.COc1ccc(C[C@@H](C)NC[C@H](O)c2ccc(O)c(NC=O)c2)cc1.O=C(O)/C=C/C(=O)O [formoterol fumarate] | – | – | – | – | – | – | – | – | – | – | – | – | – | – | – | – | – | about 10% |
